Measured values reported in patent US10611728B2, “Isoindoline compositions and methods for treating neurodegenerative disease” (priority 2014, dated 2020).
Entries after “also recorded” stand apart in the source; their conditions may differ.

Columns and labels:
[1] = tested on: caspase-3; settings: cited from earlier work; for caspase-3 activation by ligand: tumor cells and neurons
[2] = tested on: neurons; settings: neuronal cultures treated 24 hours; cited from earlier work
[3] = tested on: neuronal cultures; assay: Functional neuronal phenotype in neuronal cultures; assay type: cell-based
Experimental: Neuronal cultures are treated with various concentrations of sigma compounds for 24 hours and nuclear intensity compared to vehicle is measured.

[4] = Microsomal stability in mouse liver microsomes (MLM); assay type: in vitro ADME; settings: mouse, microsomes
Experimental: A first pharmacokinetic study was performed in microsomes of mice mouse liver microsomes, MLM) by a commercial contract research organization. The studies were performed according to Obach, R. S et al. (1997) J. Pharmacol. Exp. Ther., 283: 46-58, which is incorporated herein by reference.

SMILES	caspase-3 activation by ligand [1]	inhibition of caspase-3 activation in tumor cells ([1]; tumor cells)	nuclear morphology / nuclear intensity in neurons [2]	neuronal phenotype [3]	Mouse liver microsomes, MLM t½ [4] [min]
COc1cc2c(cc1OC)CN(CCCCNC(=O)c1cc(C)ccc1OC)CC2 [RHM-1, N-[4-(3,4-dihydro-6,7-dimethoxyisoquinolin-2(1H)-yl)butyl]-2-methoxy-5-methylbenzamide]	do not induce caspase-3 activity	inhibits the activation in tumor cells	do not decrease nuclear intensity		
COc1ccc(C)cc1NC(=O)OC1C[C@H]2CCC[C@@H](C1)N2CCCCCCN (stereo partly shown) [SV-119]	activate caspase-3 in tumor cells and neurons		cause significant abnormal nuclear morphology in neurons		
Fc1ccc(-n2cc(CCCCN3CCC4(CC3)OCc3ccccc34)c3ccccc32)cc1 [Siramesine]	activate caspase-3 in tumor cells and neurons; also recorded: induces caspase-3 activity		cause significant abnormal nuclear morphology in neurons		
CC(C)Oc1cc(CC[C@@H](C)N2Cc3cc4c(cc3C2)OCO4)ccc1O [compound 25]				Inactive/IAACon	4
CC(C)Oc1cc(CCC(C)(C)N2Cc3cc4c(cc3C2)OCO4)ccc1O [compound 29]				Inactive/IAACon	6
C[C@H](CCc1ccc(OC(=O)N(C)C)c(OC(F)(F)F)c1)N1Cc2cccc(F)c2C1 [compound 41]				Inactive/IAACon	9
